Reference: PubChem BioAssay (NCI)
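Following 48 hours of exposure in 96-well plates, responses at five concentrations were used to interpolate endpoints linearly. TGI denotes the concentration required for complete inhibition of growth.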

What was measured:
Assay in all cases: NCI anticancer screen, dose series, 48 h
[1] = system: A549 NSCLC
[2] = system: CCRF-CEM leukemia
[3] = system: EKVX NSCLC
[4] = system: HCT-116 colon
[5] = system: KM12 colon
[6] = system: NCI-H226 lung
[7] = system: NCI-H460 lung
[8] = system: NCI-H522 lung
[9] = system: OVCAR-3 ovarian
[10] = system: OVCAR-5 ovarian
[11] = system: OVCAR-8 ovarian
[12] = system: SF-268 CNS
[13] = system: SK-MEL-28 melanoma
[14] = system: SK-MEL-5 melanoma
[15] = system: SK-OV-3 ovarian
[16] = system: U251 CNS
[17] = system: UACC-62 melanoma
[18] = system: ACHN renal
[19] = system: HS 578T breast
[20] = system: PC-3 prostate

| SMILES | TGI [1] | TGI [2] | TGI [3] | TGI [4] | TGI [5] | TGI [6] | TGI [7] | TGI [8] | TGI [9] | TGI [10] | TGI [11] | TGI [12] | TGI [13] | TGI [14] | TGI [15] | TGI [16] | TGI [17] | TGI [18] | TGI [19] | TGI [20] |
| --- | --- | --- | --- | --- | --- | --- | --- | --- | --- | --- | --- | --- | --- | --- | --- | --- | --- | --- | --- | --- |
| O=C(CCN1CCOCC1)C(=Cc1ccccc1)C(=O)CCN1CCOCC1 | 35.8 µM | 7.84 µM | 5.59 µM | 5.5 µM | 13 µM | 29.4 µM | 28.3 µM | 2.85 µM | 14.4 µM | 33.6 µM | 9.88 µM | 15.1 µM | 5.64 µM | 18.2 µM | 31.1 µM | 28.4 µM | 6.19 µM | – | – | – |
| Cc1ccc(S(=O)(=O)NCCCSCCSCCCN)cc1 | > 100 µM | > 100 µM | – | > 100 µM | > 100 µM | > 100 µM | > 100 µM | > 100 µM | > 100 µM | – | > 100 µM | > 100 µM | > 100 µM | > 100 µM | > 100 µM | > 100 µM | – | > 100 µM | > 100 µM | > 100 µM |
| COC(=O)C1=C(C)N2CCOC2CC1c1ccccc1 (stereo not given) | > 100 µM | > 100 µM | > 100 µM | > 100 µM | > 100 µM | > 100 µM | > 100 µM | – | > 100 µM | – | > 100 µM | > 100 µM | > 100 µM | > 100 µM | – | – | > 100 µM | > 100 µM | – | – |
| CN(C)CCN(C(=Nc1ccccc1)N1CCCC1)c1ccccc1 | > 100 µM | > 100 µM | > 100 µM | > 100 µM | > 100 µM | > 100 µM | > 100 µM | > 100 µM | > 100 µM | > 100 µM | > 100 µM | > 100 µM | > 100 µM | > 100 µM | > 100 µM | > 100 µM | > 100 µM | > 100 µM | > 100 µM | > 100 µM |
| CC(=O)NNc1nc(C)c(C(=O)NNC(=O)C(=O)Nc2c(C)cccc2C(C)(C)C)s1 | > 100 µM | 69.9 µM | > 100 µM | > 100 µM | > 100 µM | > 100 µM | > 100 µM | 57.1 µM | – | > 100 µM | > 100 µM | > 100 µM | > 100 µM | > 100 µM | > 100 µM | > 100 µM | > 100 µM | > 100 µM | – | – |
| O=C(N/N=C\C(F)(F)F)c1ccncc1 | – | > 100 µM | – | – | > 100 µM | > 100 µM | > 100 µM | – | > 100 µM | > 100 µM | > 100 µM | – | > 100 µM | > 100 µM | > 100 µM | > 100 µM | > 100 µM | – | > 100 µM | > 100 µM |
| CCN(CC)CCN(C(=O)c1ccc(F)cc1)c1ccccc1N | > 10 µM | > 10 µM | > 10 µM | > 10 µM | > 10 µM | > 10 µM | > 10 µM | > 10 µM | > 10 µM | > 10 µM | > 10 µM | > 10 µM | > 10 µM | > 10 µM | > 10 µM | > 10 µM | > 10 µM | > 10 µM | > 10 µM | > 10 µM |
| COc1cc2oc(=O)ccc2cc1CC=C(C)C | > 100 µM | > 100 µM | > 100 µM | > 100 µM | > 100 µM | 98.6 µM | > 100 µM | > 100 µM | > 100 µM | > 100 µM | > 100 µM | > 100 µM | > 100 µM | 73.7 µM | – | > 100 µM | – | > 100 µM | > 100 µM | > 100 µM |
| COc1cc(C(=O)Nc2cc(C(N)=O)cc(OC)c2OC)cc(NC(=O)/C=C/c2ccccc2)c1OC | > 100 µM | > 100 µM | > 100 µM | – | > 100 µM | – | > 100 µM | > 100 µM | > 100 µM | > 100 µM | > 100 µM | – | > 100 µM | – | > 100 µM | – | 35.6 µM | > 100 µM | – | > 100 µM |
| Cc1ccc(S(=O)(=O)NNC2Oc3cc4c(cc3C(c3ccccc3O)C2C)OCO4)cc1 (stereo not given) | 26.8 µM | 34.5 µM | 23.8 µM | 22.1 µM | 26.5 µM | 28.3 µM | 24.5 µM | 27.3 µM | 23.7 µM | 30.5 µM | – | 28.5 µM | 30.1 µM | 27.6 µM | 37.9 µM | 22 µM | 29.8 µM | 26 µM | 29.5 µM | 22.8 µM |
